The target in assay [1] is T1, HCV polymerase (NS5B) type 1a (Hepatitis C virus genotype 1a, UniProt P26664).
T1 construct: made in house; host or cells: Escherichia coli (by the 'similar method' of the 1b enzyme)
Nature of the assay: Assay of enzyme (HCV polymerase) inhibitory activity, type 1a enzyme. The class given is biochemical, HCV type 1a (cloned from the blood of patients). In short, it runs like this:
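NS5B Δ47 C-term His6 (type 1a, 1.5 μg/ml); substrate RNA 5 μg/ml; ATP/GTP/CTP 50 μM, UTP 2 μM + [5,6-3H]UTP; Tris pH 7.5, MgCl2 5 mM; 25° C, 60 min. TCA/pyrophosphate stop, GF/B filter, scintillation. IC50 vs no-compound control.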

The target in assay [2] is T2, HCV polymerase (NS5B) type 1b (Hepatitis C virus genotype 1b, UniProt P26663).
T2 construct: a region encoding NS5B (J Virol 1991 March, 65(3), 1105-13, 544 amino acids after deletion of 47 amino acids on the C-terminal); 6xHis (C); made in house; host or cells: Escherichia coli
The experiment in a line: Assay of enzyme (HCV polymerase) inhibitory activity, type 1b enzyme. The assay is classed as biochemical, HCV BK strain (type 1b). The method, boiled down:
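Rxn: NS5B 1b (BK, ΔC47, His6) 0.5 μg/ml; substrate RNA 5 μg/ml; ATP/GTP/CTP 50 μM, UTP 2 μM + [5,6-3H]UTP; 20 mM Tris pH 7.5, 5 mM MgCl2, 50 mM NaCl, 1 mM EDTA/DTT. 25 °C, 60 min. Stop with TCA/pyrophosphate, filter, scintillation count; IC50 vs. untreated.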

Setting [3] is: HCV polymerase inhibitory activity (IC50), 1a, type 1a enzyme 1.5 μg/ml, 25° C., 60 min.
Setting [4] is: HCV polymerase inhibitory activity (IC50), 1b, type 1b enzyme 0.5 μg/ml, 25° C., 60 min.
[5] abbreviates: HCV polymerase inhibitory activity IC50, 1a, type 1a enzyme.
Where [6] appears, read: HCV polymerase inhibitory activity IC50, 1b, type 1b enzyme.

For 21 compounds, IC50 results are on record in patent US8017612B2, “Piperazine compound and use thereof as a HCV polymerase inhibitor” (priority 2006, dated 2011).

The term IC50 denotes the concentration that inhibits the measured activity by half. Lower therefore signals inhibition by little substance.

Consider `CC(C)c1ccc(CNC(=O)[C@H]2CN(C3=C(c4ccccc4)C(=O)NC3=O)CCN2S(=O)(=O)c2ccc(C(F)(F)F)cc2)cc1` [Example 148, (R)-4-(2,5-dioxo-4-phenyl-2,5-dihydro-1H-pyrrol-3-yl)-1-(4-trifluoromethyl-benzenesulfonyl)-piperazine-2-carboxylic acid 4-isopropyl-benzylamide], for which the IC50 in assay [1] (setting [3]) and in assay [2] (setting [4]) was above 1000 nM in each case.
Consider `CCC(F)(F)c1ccc(CNC(=O)[C@H]2CN(c3cnc4cnccc4n3)CCN2S(=O)(=O)c2ccc([N+](=O)[O-])cc2)cc1` [Example 726, (R)-1-(4-nitro-benzenesulfonyl)-4-pyrido[3,4-b]pyrazin-2-yl-piperazine-2-carboxylic acid 4-(1,1-difluoro-propyl)-benzylamide], for which the IC50 in assay [1] (setting [5]) and in assay [2] (setting [6]) was below 100 nM each time.
`CCCc1ccc(CNC(=O)[C@H]2CN(c3cnc4cncc(C(=O)O)c4n3)CCN2S(=O)(=O)c2ccc(C(C)(C)C)cc2)cc1` [Example 844, 2-[(R)-4-(4-tert-butyl-benzenesulfonyl)-3-(4-propyl-benzylcarbamoyl)-piperazin-1-yl]-pyrido[3,4-b]pyrazine-8-carboxylic acid]: the IC50 in assay [1] (setting [5]) and in assay [2] (setting [6]) was below 100 nM in each case.
Take `CC(=O)N1CCN(S(=O)(=O)c2ccc(C(C)C)cc2)C(C(=O)NCCc2ccccc2)C1` (stereo not drawn) [Example 118, 4-acetyl-1-(4-isopropyl-benzenesulfonyl)-piperazine-2-carboxylic acid phenethyl-amide]: the IC50 in assay [1] (setting [3]) and in assay [2] (setting [4]) was above 1000 nM throughout.
Regarding `CC(=O)N1CCN(S(=O)(=O)c2cccc(C(F)(F)F)c2)[C@@H](C(=O)NCc2ccc(C(C)C)cc2)C1` [Example 263, (R)-4-acetyl-1-(3-trifluoromethyl-benzenesulfonyl)-piperazine-2-carboxylic acid 4-isopropyl-benzylamide], the IC50 in assay [1] (setting [3]) and in assay [2] (setting [4]) was 100 to 1000 nM each time.
In the case of `CC(C)c1ccc(S(=O)(=O)N2CCN(C(=O)COc3ccccc3)CC2C(=O)NCc2ccc(C(F)(F)F)cc2)cc1` (stereo not drawn) [Example 125, 1-(4-isopropyl-benzenesulfonyl)-4-(2-phenoxy-acetyl)-piperazine-2-carboxylic acid 4-trifluoromethyl-benzylamide], the IC50 in assay [1] (setting [3]) and in assay [2] (setting [4]) was above 1000 nM throughout.
`O=C(NCc1ccc(OC(F)(F)F)cc1)[C@H]1CN(c2nc3cccnc3s2)CCN1S(=O)(=O)c1ccc(OC(F)(F)F)cc1` [Example 776, (R)-4-thiazolo[5,4-b]pyridin-2-yl-1-(4-trifluoromethoxy-benzenesulfonyl)-piperazine-2-carboxylic acid 4-trifluoromethoxy-benzylamide]: the IC50 in assay [1] (setting [5]) and in assay [2] (setting [6]) was below 100 nM in each case.
Consider `O=C(NCc1ccc(OC(F)(F)F)cc1)[C@H]1CN(c2nc3nc(Cl)ncc3s2)CCN1S(=O)(=O)c1ccc(C(F)(F)F)cc1` [Example 887, (R)-4-(5-chloro-thiazolo[4,5-d]pyrimidin-2-yl)-1-(4-trifluoromethyl-benzenesulfonyl)-piperazine-2-carboxylic acid 4-trifluoromethoxy-benzylamide], for which the IC50 in assay [1] (setting [5]) and in assay [2] (setting [6]) was below 100 nM throughout.
As for `CC(C)(C)OC(=O)N1CCc2nc(N3CCN(S(=O)(=O)c4ccc(OC(F)(F)F)cc4)[C@@H](C(=O)NCc4ccc(C(C)(C)C)cc4)C3)sc2C1` [Example 587, 2-[(R)-3-(4-tert-butyl-benzylcarbamoyl)-4-(4-trifluoromethoxy-benzenesulfonyl)-piperazin-1-yl]-6,7-dihydro-4H-thiazolo[5,4-c]pyridine-5-carboxylic acid tert-butyl ester], the IC50 in assay [1] (setting [3]) is 100 to 1000 nM; in assay [2] (setting [4]), below 100 nM.
Taken in the same sequence, the figures for `CC(C)c1ccc(CNC(=O)[C@H]2CN(C(=O)NS(=O)(=O)c3ccccc3)CCN2S(=O)(=O)c2ccc(C(F)(F)F)cc2)cc1` [Example 265, (R)-4-benzenesulfonylaminocarbonyl-1-(4-trifluoromethyl-benzenesulfonyl)-piperazine-2-carboxylic acid 4-isopropyl-benzylamide] were above 1000 nM and above 1000 nM.
Consider `O=C(O)c1cccc2ncc(N3CCN(S(=O)(=O)c4ccc(OC(F)(F)F)cc4)[C@@H](C(=O)NCc4ccc(OC(F)(F)F)cc4)C3)nc12` [Example 781, 3-[(R)-4-(4-trifluoromethoxy-benzenesulfonyl)-3-(4-trifluoromethoxy-benzylcarbamoyl)-piperazin-1-yl]-quinoxaline-5-carboxylic acid], for which the IC50 in assay [1] (setting [5]) and in assay [2] (setting [6]) was below 100 nM throughout.
For `CC(=O)N1CCN(S(=O)(=O)c2ccc(C#N)cc2)C(C(=O)NCc2ccc(C(F)(F)F)cc2)C1` (stereo not drawn) [Example 46, 4-acetyl-1-(4-cyano-benzenesulfonyl)-piperazine-2-carboxylic acid 4-trifluoromethyl-benzylamide], the IC50 in assay [1] (setting [3]) and in assay [2] (setting [4]) was above 1000 nM in each case.
In the case of `CCC(F)(F)c1ccc(CNC(=O)[C@H]2CN(C(=O)Nc3cc(C)ns3)CCN2S(=O)(=O)c2ccc(OC(F)(F)F)cc2)cc1` [Example 553, (R)-4-(4-trifluoromethoxy-benzenesulfonyl)-piperazine-1,3-dicarboxylic acid 3-[4-(1,1-difluoro-propyl)-benzylamide] 1-[(3-methyl-isothiazol-5-yl)-amide]], the IC50 in assay [1] (setting [3]) and in assay [2] (setting [4]) was below 100 nM throughout.
Turning to `Cc1nc(N2CCN(S(=O)(=O)c3ccc(C(F)(F)F)cc3)[C@@H](C(=O)NCc3ccc(C(C)C)cc3)C2)sc1C(=O)NS(C)(=O)=O` [Example 446, (R)-4-(5-methanesulfonylaminocarbonyl-4-methyl-thiazol-2-yl)-1-(4-trifluoromethyl-benzenesulfonyl)-piperazine-2-carboxylic acid 4-isopropyl-benzylamide], the values for the IC50 in assay [1] (setting [3]) and in assay [2] (setting [4]) were 100 to 1000 nM and below 100 nM, respectively.
In the case of `CC(C)c1ccc(CNC(=O)[C@H]2CN(C(=O)Nc3cccnc3)CCN2S(=O)(=O)c2ccc(C(F)(F)F)cc2)cc1` [Example 211, (R)-4-(4-trifluoromethyl-benzenesulfonyl)-piperazine-1,3-dicarboxylic acid 3-(4-isopropyl-benzylamide) 1-pyridin-3-ylamide], the IC50 in assay [1] (setting [3]) and in assay [2] (setting [4]) was 100 to 1000 nM each time.
For `Cc1nc(N2CCN(S(=O)(=O)c3ccc(C(F)(F)F)cc3)[C@@H](C(=O)NCc3ccc(C(C)C)cc3)C2)c(C)nc1C(=O)O` [Example 422, (R)-3-(4-isopropyl-benzylcarbamoyl)-3′,6′-dimethyl-4-(4-trifluoromethyl-benzenesulfonyl)-3,4,5,6-tetrahydro-2H-[1,2′]bipyrazinyl-5′-carboxylic acid], the IC50 in assay [1] (setting [3]) and in assay [2] (setting [4]) was above 1000 nM throughout.
Turning to `CC(=O)N1CCN(S(=O)(=O)c2ccc(OC(F)(F)F)cc2)[C@@H](C(=O)NC[C@H]2CC[C@H](C(=O)O)CC2)C1` [Example 669, trans-4-({[(R)-4-acetyl-1-(4-trifluoromethoxy-benzenesulfonyl)-piperazine-2-carbonyl]-amino}-methyl)-cyclohexanecarboxylic acid], the IC50 in assay [1] (setting [5]) and in assay [2] (setting [6]) was above 1000 nM throughout.
With `O=C(NCc1ccc(Br)cc1)[C@H]1CN(c2cnc3cncnc3n2)CCN1S(=O)(=O)c1ccc(OC(F)(F)F)cc1` [Example 653, (R)-4-pteridin-7-yl-1-(4-trifluoromethoxy-benzenesulfonyl)-piperazine-2-carboxylic acid 4-bromo-benzylamide], the IC50 in assay [1] (setting [3]) and in assay [2] (setting [4]) was below 100 nM each time.
Regarding `CCCc1ccc(CNC(=O)[C@H]2CN(c3cnc(C(=O)O)cn3)CCN2S(=O)(=O)c2ccc(C(C)(C)C)cc2)cc1` [Example 700, (R)-4-(4-tert-butyl-benzenesulfonyl)-3-(4-propyl-benzylcarbamoyl)-3,4,5,6-tetrahydro-2H-[1,2′]bipyrazinyl-5′-carboxylic acid], the IC50 in assay [1] (setting [5]) and in assay [2] (setting [6]) was below 100 nM each time.
For the compound `CCNC(=O)c1cnc(N2CCN(S(=O)(=O)c3ccc(OC(F)(F)F)cc3)[C@@H](C(=O)NCc3ccc(OC(F)(F)F)cc3)C2)cn1` [Example 852, (R)-4-(4-trifluoromethoxy-benzenesulfonyl)-3,4,5,6-tetrahydro-2H-[1,2′]bipyrazinyl-3,5′-dicarboxylic acid 5′-ethylamide 3-(4-trifluoromethoxy-benzylamide)], the IC50 in assay [1] (setting [5]) and in assay [2] (setting [6]) was below 100 nM in each case.
Consider `CC(C)(C)c1ccc(CNC(=O)[C@H]2CN(c3ncc(CO)s3)CCN2S(=O)(=O)c2ccc(OC(F)(F)F)cc2)cc1` [Example 570, (R)-4-(5-hydroxymethyl-thiazol-2-yl)-1-(4-trifluoromethoxy-benzenesulfonyl)-piperazine-2-carboxylic acid 4-tert-butyl-benzylamide], for which the IC50 in assay [1] (setting [3]) and in assay [2] (setting [4]) was below 100 nM in each case.
